Measured values taken from publication PMC3431135, “Pharmacological Evaluation and Docking Studies of 3-Thiadiazolyl- and Thioxo-1,2,4-triazolylcoumarin Derivatives as Cholinesterase Inhibitors” (ISRN Pharmacology, 2012).

biological target: T1, BChE from horse serum (hBChE) (Equus caballus, UniProt P81908); assay: biochemical; assay type: biochemical; settings: not given
T1 construct: butyrylcholinesterase (BChE) (EC 3.1.1.8, from horse serum); purchased Sigma-Aldrich (Steinheim, Germany); host or cells: horse serum (natural source)
Procedure: (§1) Acetylcholinesterase (AChE) (EC 3.1.1.7, type VI-S from Electric Eel), butyrylcholinesterase (BChE) (EC 3.1.1.8, from horse serum). AChE and BChE were also isolated from rabbit brain and serum, respectively.
(§2) The inhibitory activities of coumarin derivatives were measured quantitatively by Ellman's method and performed with some modifications as in Ingkaninan et al. method by using 96-microliter well plate. Series of newly synthesized coumarin derivatives were tested as AChE and BChE inhibitors. Initially, each compound was dissolved in DMSO (end concentration of DMSO was less than 1% in assay) and tested at a final concentration of 1 mM or 10 μL of DMSO (as negative control) in wells for initial screening. […] Reaction mixture comprised of 50 μL of 3 mM DTNB (5,5′-dithiobis(2-nitrobenzoic acid)) in assay buffer, 10 μL of test compound, and 10 μL of AChE (0.031 IU/mL) or BChE (0.5 IU/mL). This mixture was preincubated at 25°C for 10 min. After preincubation, enzymatic reaction was started by addition of 10 μL of 10 mM MBTCCl (butyrylthiocholine chloride) or ATCI (acetylthiocholine iodide) according to the respective enzyme and mixture was incubated again for 15 min. […] Enzyme dilution buffer consisted of 50 mM Tris-HCl containing 0.1% (w/v) BSA (pH 8). The effect of DMSO on activity of enzyme was subtracted by a negative control containing DMSO, instead of inhibitor. Each concentration was analyzed in triplicate and Ki values were calculated from IC50 values by using a nonlinear curve fitting program PRISM 5.0 (GraphPad, San Diego, California, USA).

T1 sequence (P81908 whole entry): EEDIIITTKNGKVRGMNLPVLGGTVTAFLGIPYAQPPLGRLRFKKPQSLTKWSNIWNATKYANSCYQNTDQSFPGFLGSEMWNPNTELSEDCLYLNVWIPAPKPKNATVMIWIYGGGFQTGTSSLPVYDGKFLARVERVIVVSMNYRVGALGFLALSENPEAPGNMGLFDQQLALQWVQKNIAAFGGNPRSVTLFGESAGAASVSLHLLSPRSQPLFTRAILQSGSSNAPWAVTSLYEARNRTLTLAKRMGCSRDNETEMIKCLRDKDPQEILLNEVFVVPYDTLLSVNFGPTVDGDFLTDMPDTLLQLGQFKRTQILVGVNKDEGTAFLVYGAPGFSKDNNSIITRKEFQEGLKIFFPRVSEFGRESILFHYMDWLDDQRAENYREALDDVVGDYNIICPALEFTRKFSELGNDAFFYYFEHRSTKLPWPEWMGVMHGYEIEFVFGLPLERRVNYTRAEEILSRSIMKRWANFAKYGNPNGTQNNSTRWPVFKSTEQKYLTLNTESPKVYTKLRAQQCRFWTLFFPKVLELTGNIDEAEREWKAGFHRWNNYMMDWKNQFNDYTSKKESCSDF

Row | Structure (SMILES) | Ki [nM]
1 | CN(C)C(=O)Oc1cccc([N+](C)(C)C)c1 [Neostigmine, neostigmine methylsulfate, reference compound] | 60 ± 5

same assay, conditions: horse serum BChE; mean ± SEM of three experiments; Ki calculated from IC50; substrate BTCCl; read-out: hBChE Ki ± SEM

Row | Structure (SMILES) | Ki [nM]
2 | O=c1oc2ccccc2cc1-c1n[nH]c(=S)n1-c1ccccc1Cl [Compound 3a, 3-(4-(2-Chlorophenyl)-5-thioxo-4,5-dihydro-1H-1,2,4-triazol-3-yl)-2H-chromen-2-one] | 190 ± 10
3 | O=c1oc2ccccc2cc1-c1n[nH]c(=S)n1-c1cccc(Cl)c1 [Compound 3b, 3-(4-(3-Chlorophenyl)-5-thioxo-4,5-dihydro-1H-1,2,4-triazol-3-yl)-2H-chromen-2-one] | 36 ± 3
4 | O=c1oc2ccccc2cc1-c1n[nH]c(=S)n1-c1ccc(Cl)cc1 [Compound 3c, 3-(4-(4-Chlorophenyl)-5-thioxo-4,5-dihydro-1H-1,2,4-triazol-3-yl)-2H-chromen-2-one] | 1340 ± 20
5 | Cc1cccc(-n2c(-c3cc4ccccc4oc3=O)n[nH]c2=S)c1 [Compound 3d, 3-(5-Thioxo-4-m-tolyl-4,5-dihydro-1H-1,2,4-triazol-3-yl)-2H-chromen-2-one] | 180 ± 20
6 | Cc1ccc(-n2c(-c3cc4ccccc4oc3=O)n[nH]c2=S)cc1 [Compound 3e, 3-(5-Thioxo-4-p-tolyl-4,5-dihydro-1H-1,2,4-triazol-3-yl)-2H-chromen-2-one] | 130 ± 10
7 | COc1ccccc1-n1c(-c2cc3ccccc3oc2=O)n[nH]c1=S [Compound 3f, 3-(4-(2-Methoxyphenyl)-5-thioxo-4,5-dihydro-1H-1,2,4-triazol-3-yl)-2H-chromen-2-one] | 280 ± 10

same assay, conditions: ratio of Ki values versus neostigmine

Row | Structure (SMILES) | fold more active on hBChE than neostigmine [fold]
8 | O=c1oc2ccccc2cc1-c1n[nH]c(=S)n1-c1cccc(Cl)c1 [Compound 3b, 3-(4-(3-Chlorophenyl)-5-thioxo-4,5-dihydro-1H-1,2,4-triazol-3-yl)-2H-chromen-2-one] | 2

biological target: T2, AChE from electrophorus electricus (EeAChE) (Electrophorus electricus, UniProt O42275); assay: biochemical; settings: not given
T2 construct: Acetylcholinesterase (AChE) (EC 3.1.1.7, type VI-S from Electric Eel); purchased Sigma-Aldrich (Steinheim, Germany) type VI-S; host or cells: electric eel (natural source)
Procedure: as §1, §2

T2 sequence (O42275 24-633): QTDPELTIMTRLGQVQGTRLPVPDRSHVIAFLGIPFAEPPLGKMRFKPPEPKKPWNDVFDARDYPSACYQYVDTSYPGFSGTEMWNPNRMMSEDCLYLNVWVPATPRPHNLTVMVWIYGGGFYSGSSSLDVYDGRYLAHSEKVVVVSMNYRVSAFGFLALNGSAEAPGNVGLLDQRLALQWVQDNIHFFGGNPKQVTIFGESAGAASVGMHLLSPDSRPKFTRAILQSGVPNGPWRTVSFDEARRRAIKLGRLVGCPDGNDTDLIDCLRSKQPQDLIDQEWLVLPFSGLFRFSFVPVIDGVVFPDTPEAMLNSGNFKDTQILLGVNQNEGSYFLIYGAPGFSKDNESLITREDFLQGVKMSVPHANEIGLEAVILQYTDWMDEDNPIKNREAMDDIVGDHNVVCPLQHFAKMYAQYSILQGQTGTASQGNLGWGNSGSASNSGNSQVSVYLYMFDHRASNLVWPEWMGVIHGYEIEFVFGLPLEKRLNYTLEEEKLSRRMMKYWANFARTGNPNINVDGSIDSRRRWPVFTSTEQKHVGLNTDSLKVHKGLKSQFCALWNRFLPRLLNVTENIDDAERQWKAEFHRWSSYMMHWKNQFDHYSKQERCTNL

Row | Structure (SMILES) | Ki [nM]
9 | CN(C)C(=O)Oc1cccc([N+](C)(C)C)c1 [Neostigmine, neostigmine methylsulfate, reference compound] | 56 ± 6

same assay, conditions: mean ± SEM of three experiments; Ki calculated from IC50; substrate ATCI; read-out: EeAChE Ki ± SEM

Row | Structure (SMILES) | Ki [nM]
10 | O=c1oc2ccccc2cc1-c1n[nH]c(=S)n1-c1ccccc1Cl [Compound 3a, 3-(4-(2-Chlorophenyl)-5-thioxo-4,5-dihydro-1H-1,2,4-triazol-3-yl)-2H-chromen-2-one] | 2420 ± 430
11 | O=c1oc2ccccc2cc1-c1n[nH]c(=S)n1-c1cccc(Cl)c1 [Compound 3b, 3-(4-(3-Chlorophenyl)-5-thioxo-4,5-dihydro-1H-1,2,4-triazol-3-yl)-2H-chromen-2-one] | 320 ± 70
12 | O=c1oc2ccccc2cc1-c1n[nH]c(=S)n1-c1ccc(Cl)cc1 [Compound 3c, 3-(4-(4-Chlorophenyl)-5-thioxo-4,5-dihydro-1H-1,2,4-triazol-3-yl)-2H-chromen-2-one] | 450 ± 90
13 | Cc1cccc(-n2c(-c3cc4ccccc4oc3=O)n[nH]c2=S)c1 [Compound 3d, 3-(5-Thioxo-4-m-tolyl-4,5-dihydro-1H-1,2,4-triazol-3-yl)-2H-chromen-2-one] | 5770 ± 310
14 | Cc1ccc(-n2c(-c3cc4ccccc4oc3=O)n[nH]c2=S)cc1 [Compound 3e, 3-(5-Thioxo-4-p-tolyl-4,5-dihydro-1H-1,2,4-triazol-3-yl)-2H-chromen-2-one] | 18400 ± 3400
15 | COc1ccccc1-n1c(-c2cc3ccccc3oc2=O)n[nH]c1=S [Compound 3f, 3-(4-(2-Methoxyphenyl)-5-thioxo-4,5-dihydro-1H-1,2,4-triazol-3-yl)-2H-chromen-2-one] | 4060 ± 340

biological target: T3, BChE from rabbit serum (rBChE) (Oryctolagus cuniculus, UniProt P21927); assay: biochemical; settings: not given
T3 construct: BChE was obtained from rabbit blood serum by applying the techniques of centrifugation; from tissue; host or cells: rabbit blood serum
Procedure: as §1
(§3) AChE was isolated from rabbit brain. Heads were decapitated and brains were thawed and homogenized for 30 sec in 2.5 volumes of 1 mM EDTA, 0.32 M ice cold sucrose, 10 μM tetracain (pH7.0). The homogenates were centrifuged at 105,000 ×g for 60 min (4°C). The supernatants were removed and pellets were again homogenized in same volume of 0.2% triton phosphate buffer. After centrifugation, the supernatants were again removed and pellets were rehomogenized for 10 sec in 2.5 volumes of 1% triton phosphate buffer. […] BChE was obtained from rabbit blood serum by applying the techniques of centrifugation. The purified enzymes were stored at –80°C.
as §2

T3 sequence (P21927 9-581): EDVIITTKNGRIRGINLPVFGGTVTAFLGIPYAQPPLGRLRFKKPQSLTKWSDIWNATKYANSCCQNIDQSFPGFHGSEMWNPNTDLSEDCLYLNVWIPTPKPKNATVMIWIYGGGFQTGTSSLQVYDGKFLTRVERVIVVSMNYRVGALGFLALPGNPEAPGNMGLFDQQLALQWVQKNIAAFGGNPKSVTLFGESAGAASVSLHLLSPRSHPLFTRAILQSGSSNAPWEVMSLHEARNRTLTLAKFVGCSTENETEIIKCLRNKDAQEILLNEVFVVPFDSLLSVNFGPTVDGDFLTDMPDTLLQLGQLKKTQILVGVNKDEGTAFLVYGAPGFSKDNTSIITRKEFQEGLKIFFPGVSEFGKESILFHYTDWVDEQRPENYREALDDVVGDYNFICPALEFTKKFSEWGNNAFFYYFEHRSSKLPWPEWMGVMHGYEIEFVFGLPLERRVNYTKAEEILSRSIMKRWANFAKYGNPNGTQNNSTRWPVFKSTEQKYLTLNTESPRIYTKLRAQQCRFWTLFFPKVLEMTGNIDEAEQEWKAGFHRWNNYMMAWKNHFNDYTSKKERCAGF

Row | Structure (SMILES) | Ki [nM]
16 | CN(C)C(=O)Oc1cccc([N+](C)(C)C)c1 [Neostigmine, neostigmine methylsulfate, reference compound] | 47 ± 6

same assay, conditions: rabbit serum BChE; mean ± SEM of three experiments; Ki calculated from IC50; substrate BTCCl; read-out: rBChE Ki ± SEM

Row | Structure (SMILES) | Ki [nM]
17 | O=c1oc2ccccc2cc1-c1n[nH]c(=S)n1-c1ccccc1Cl [Compound 3a, 3-(4-(2-Chlorophenyl)-5-thioxo-4,5-dihydro-1H-1,2,4-triazol-3-yl)-2H-chromen-2-one] | 21400 ± 1600
18 | O=c1oc2ccccc2cc1-c1n[nH]c(=S)n1-c1cccc(Cl)c1 [Compound 3b, 3-(4-(3-Chlorophenyl)-5-thioxo-4,5-dihydro-1H-1,2,4-triazol-3-yl)-2H-chromen-2-one] | 65700 ± 2000
19 | O=c1oc2ccccc2cc1-c1n[nH]c(=S)n1-c1ccc(Cl)cc1 [Compound 3c, 3-(4-(4-Chlorophenyl)-5-thioxo-4,5-dihydro-1H-1,2,4-triazol-3-yl)-2H-chromen-2-one] | 520 ± 30
20 | Cc1cccc(-n2c(-c3cc4ccccc4oc3=O)n[nH]c2=S)c1 [Compound 3d, 3-(5-Thioxo-4-m-tolyl-4,5-dihydro-1H-1,2,4-triazol-3-yl)-2H-chromen-2-one] | 1110 ± 50
21 | Cc1ccc(-n2c(-c3cc4ccccc4oc3=O)n[nH]c2=S)cc1 [Compound 3e, 3-(5-Thioxo-4-p-tolyl-4,5-dihydro-1H-1,2,4-triazol-3-yl)-2H-chromen-2-one] | 140 ± 50
22 | COc1ccccc1-n1c(-c2cc3ccccc3oc2=O)n[nH]c1=S [Compound 3f, 3-(4-(2-Methoxyphenyl)-5-thioxo-4,5-dihydro-1H-1,2,4-triazol-3-yl)-2H-chromen-2-one] | 690 ± 20

biological target: T4, rabbit AChE (rAChE), isolated from rabbit brain (Oryctolagus cuniculus, UniProt Q29499); assay: biochemical; settings: not given
T4 construct: AChE was isolated from rabbit brain; from tissue; host or cells: rabbit brain
Procedure: as §1, §3, §2

T4 sequence (Q29499 2-584): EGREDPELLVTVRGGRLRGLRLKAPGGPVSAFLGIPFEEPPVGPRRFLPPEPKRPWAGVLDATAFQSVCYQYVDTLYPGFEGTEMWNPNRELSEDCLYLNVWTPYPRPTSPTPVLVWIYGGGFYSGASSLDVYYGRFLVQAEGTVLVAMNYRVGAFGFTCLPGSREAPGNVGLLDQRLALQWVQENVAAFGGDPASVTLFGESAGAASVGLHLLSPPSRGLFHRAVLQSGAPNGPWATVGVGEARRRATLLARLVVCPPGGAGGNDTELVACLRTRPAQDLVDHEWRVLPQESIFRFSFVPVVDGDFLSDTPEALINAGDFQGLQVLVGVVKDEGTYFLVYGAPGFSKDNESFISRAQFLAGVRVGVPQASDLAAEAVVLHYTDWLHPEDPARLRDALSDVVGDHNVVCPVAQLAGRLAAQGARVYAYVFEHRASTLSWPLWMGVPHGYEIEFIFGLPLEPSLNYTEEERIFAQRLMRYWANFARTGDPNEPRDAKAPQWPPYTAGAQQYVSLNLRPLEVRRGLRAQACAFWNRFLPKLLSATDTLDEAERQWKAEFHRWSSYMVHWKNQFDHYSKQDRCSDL

Row | Structure (SMILES) | Ki [nM]
23 | CN(C)C(=O)Oc1cccc([N+](C)(C)C)c1 [Neostigmine, neostigmine methylsulfate, reference compound] | 48 ± 3

same assay, conditions: mean ± SEM of three experiments; Ki calculated from IC50; substrate ATCI; read-out: rAChE Ki ± SEM

Row | Structure (SMILES) | Ki [nM]
24 | O=c1oc2ccccc2cc1-c1n[nH]c(=S)n1-c1ccccc1Cl [Compound 3a, 3-(4-(2-Chlorophenyl)-5-thioxo-4,5-dihydro-1H-1,2,4-triazol-3-yl)-2H-chromen-2-one] | 470 ± 70
25 | O=c1oc2ccccc2cc1-c1n[nH]c(=S)n1-c1cccc(Cl)c1 [Compound 3b, 3-(4-(3-Chlorophenyl)-5-thioxo-4,5-dihydro-1H-1,2,4-triazol-3-yl)-2H-chromen-2-one] | 600 ± 30
26 | O=c1oc2ccccc2cc1-c1n[nH]c(=S)n1-c1ccc(Cl)cc1 [Compound 3c, 3-(4-(4-Chlorophenyl)-5-thioxo-4,5-dihydro-1H-1,2,4-triazol-3-yl)-2H-chromen-2-one] | 13 ± 2
27 | Cc1cccc(-n2c(-c3cc4ccccc4oc3=O)n[nH]c2=S)c1 [Compound 3d, 3-(5-Thioxo-4-m-tolyl-4,5-dihydro-1H-1,2,4-triazol-3-yl)-2H-chromen-2-one] | 82 ± 2
28 | Cc1ccc(-n2c(-c3cc4ccccc4oc3=O)n[nH]c2=S)cc1 [Compound 3e, 3-(5-Thioxo-4-p-tolyl-4,5-dihydro-1H-1,2,4-triazol-3-yl)-2H-chromen-2-one] | 39 ± 2
29 | COc1ccccc1-n1c(-c2cc3ccccc3oc2=O)n[nH]c1=S [Compound 3f, 3-(4-(2-Methoxyphenyl)-5-thioxo-4,5-dihydro-1H-1,2,4-triazol-3-yl)-2H-chromen-2-one] | 61 ± 5
